Laboratory results published in US20070077283A1, “METHOD OF ENHANCING TRANSMUCOSAL DELIVERY OF THERAPEUTIC COMPOUNDS” (Nastech Pharmaceutical Company Inc., priority 2005, published 2007).

Columns and labels:
[1] = test system: human-derived tracheal/bronchial epithelial cells (EpiAirway Tissue Model); assay: Transepithelial electrical resistance (TER) of an epithelial cell monolayer; type: cell-based; conditions: for activity at 1000 µM: Homo sapiens, Epithelial cell, 1 h, read-out: Mean % of Original TER Value
Protocol: Inserts are feed for each day of recovery. TER measurements were accomplished using the Endohm-12 Tissue Resistance Measurement Chamber connected to the EVOM Epithelial Voltohmmeter (World Precision Instruments, Sarasota, Fla.) with the electrode leads. The electrodes and a tissue culture blank insert were equilibrated for at least 20 minutes in MatTek medium with the power off prior to checking calibration. The background resistance was measured with 1.5 ml media in the Endohm tissue chamber and 300 μl media in the blank insert. The top electrode was adjusted so that it was close to, but not making contact with, the top surface of the insert membrane. Background resistance of the blank insert was about 5-20 ohms. […] TER values are a function of the surface area of the tissue. […] By this method of calculation, TER will be expressed as both Ohms*cm2 and percent original TER value. […] Several different lipid types (see Table 1) were screened to select for lipids that are capable of enhancing the permeation of a biological agent across an epithelial cell monolayer. […] A reduction in TER correlates with the ability to enhance the permeation of a molecule and biological agent across an epithelia.

[2] = test system: human-derived tracheal/bronchial epithelial cells (EpiAirway Tissue Model); assay: in vitro
Protocol: Normal, human-derived tracheal/bronchial epithelial cells will serve as the model cell system for assessing the lipids listed in Table 1. The cells are supplied by MatTek Corp. (Ashland, Mass.) as the EpiAirway™ Tissue Model. The cells are provided as a confluent monolayer on a Millipore Milicell-CM cell culture insert with a pore size of 0.4 μM, inner diameter of 0.8 cm and surface area of 0.6 cm^2 and comprised of transparent hydrophilic Teflon (PTFE). Upon receipt, the membranes are cultured in 1 ml basal media (phenol red-free and hydrocortisone-free Dulbecco's Modified Eagle's Media (DMEM) at 37° C./5% CO2 for 24-48 hours before use. Inserts are feed for each day of recovery.
The amount of cell death was assayed by measuring the loss of lactate dehydrogenase (LDH) from the cells using a CytoTox 96 Cytotoxicity Assay Kit (Promega Corp., Madison, Wis.). A treatment of 1% Octylphenolpoly(ethyleneglycolether)x (Triton X-100™) diluted in PBS was used as a lysis control. One percent Triton X-100™ mediated cell lysis was normalized to 100%. For basal-lateral LDH levels, triplicates of 50 μl of the basal media were loaded into a 96-well assay plate. For apical LDH levels, 150 μl of Epi-Cm was added to the apical side of each chamber and mixed by pipeting. One hundred and fifty microliters was then removed and diluted 2-fold prior to performing the LDH assay. All apical LDH assay were performed in triplicate and with 50 μl of the diluted test solution. Fresh, cell-free culture medium will be used as a blank. Total LDH levels were determined by lysing cells in a final concentration of 0.9% Triton-X100™. Fifty microliters of substrate solution was added to each well and the plates incubated for 30 minutes at room temperature in the dark. Following incubation, 50 μl of stop solution was added to each well and the plates read on an optical density plate reader at […]. Cytotoxicity was expressed as a percentage calculated by subtracting the average absorbance of the PBS control wells as the endogenously released LDH level and expressing that value relative to the average Triton-X100 control, which represents total LDH content. [formula] Osmolality
For the instant application, phosphate buffered saline (PBS) served as a negative control for both the TER assay and LDH (cytotoxicity) assay. […] TER measurements and LDH levels were taken immediately after a one hour treatment of the cultured cells with each lipid, unless specified otherwrise.
TER reduction was expressed as the percent decrease in TER value from time zero to one hour post-treatment. Thus, greater percent reduction in TER represents less electrical resistance across the epithelial cell monolayer and consequently greater epithelial cell permeation. Cytotoxicity (LDH levels) for each lipid was expressed as a percent of the LDH levels measured after Triton-X100 treatment of the cells. Triton-X100™ LDH levels were normalized to 100%.

[3] = test system: human-derived tracheal/bronchial epithelial cells (EpiAirway Tissue Model); assay: Cell viability (MTT assay); type: cell-based; conditions: compared with PBS negative control (Example 5)
Protocol: Cell viability will be assessed using the MTT assay (MTT-100, MatTek kit). This kit measures the uptake and transformation of tetrazolium salt to formazan dye. Thawed and diluted MTT concentrate is prepared 1 hour prior to the end of the dosing period with the lipid by mixing 2 mL of MTT concentrate with 8 mL of MTT diluent. Each cell culture insert is washed twice with PBS containing Ca^+2 and Mg^+2 and then transferred to a new 96-well transport plate containing 100 μL of the mixed MTT solution per well. This 96-well transport plate is then incubated for three hours at 37° C. and 5% CO2. After the three hour incubation, the MTT solution is removed and the cultures are transferred to a second 96-well feeder tray containing 250 μL MTT extractant solution per well. An additional 150 μL of MTT extractan solution was added to the surface of each culture well and the samples sat at room temperature in the dark for a minimum of two hours and maximum of 24 hours. The insert membrane was then pierced with a pipet tip and the solutions in the upper and lower wells were allowed to mix. Two hundred microliters of the mixed extracted solution along with extracted blanks (negative control) was transferred to a 96-well plate for measurement with a microplate reader. The optical density (OD) of the samples was measured at 570 nm with the background subtraction at 650 nm on a plate reader. Cell viability was expressed as a percentage and calculated by dividing the OD readings for treated inserts by the OD readings for the PBS treated inserts and multiplying by 100. For the purposes of this assay, it was assumed that PBS had no effect on cell viability and therefore represented 100% cell viability.

[4] = test system: human-derived tracheal/bronchial epithelial cells (EpiAirway Tissue Model); assay: FITC-Dextran permeation assay across epithelial cell monolayer; type: cell-based; conditions: for Mean % FD3 Permeation: FITC-dextran 3000 (Table 4)
Protocol: Each tissue insert was placed in an individual well containing 1 ml of MatTek basal media. On the apical surface of the inserts, 20 μl of test formulation was applied according to study design, and the samples were placed on a shaker (˜100 rpm) for 1.5 hours at 37° C. FITC-labeled dextran solution was added to inserts apically and a fluorescence measurement was taken from the basolateral media after the incubation period. Two hundred microliters of the basal media for each test formulation was transferred to a dark-wall fluorescent reading plate. Each test formulation was tested in triplicate. Fluorescent intensity was measured at 470 nM with the microplate fluorescence reader FLx800 (Bio-Tek Instruments, Inc., Winooski, Vt.). A FITC labeled dextran with a molecular weight of 3 kDA, 10 kDA, 20 kDA, 40 kDA, 70 kDA and/or 500 kDA was used to assess the ability of individual lipids to deliver a model protein across an epithelia.
Permeation is expressed as percent permeation and was calculated as follows: [formula] [formula] Terms
PBS and 0.3% Triton-X100™ served as […]. […] FD permeation was presented as the percent of FD that crossed from the apical side of the epithelial cell monolayer to the basolateral cell surface.

[5] = lipid 1000 μM, percent decrease in TER from time zero
[6] = lipid 1000 μM, lower value = greater TER reduction (Table 4)

Row | Compound | Mean TER Reduction 1 hr. Post-treatment [1, 5] | MTT levels (cell viability) [3] | activity at 1000 µM [1, 6] | Mean % Relative Cytotoxic Effect (LDH) ([2]; human, 1 h, 1000 μM) | Mean % FD3 Permeation ([4]; lipid 1000 μM) | Mean % of Original TER Value [1, 6] | Mean % Relative Cytotoxic Effect (LDH) ([2]; lipid 1000 μM (Table 4)) | other results
1 | CCCCCCCCCCCCCCCC(=O)OC[C@H](COP(=O)([O-])OCC[N+](C)(C)C)OC(=O)CCCCCCCC=O [16:0-09:0(ALDO)PC, 1-Palmitoyl-2-(9′-oxo-Nonanoyl)-sn-Glycero-3-Phosphocholine] | 81% | MTT levels comparable to that of the PBS negative control | – | – | – | – | – | LDH levels ([2]; human, 1 h): below 30%; Cytotoxic Effect (LDH) 1 hr. Post-treatments ([2]; human, 1 h, 1000 μM): 10%; % FITC-Dextran Permeation FD3 ([4]; lipid 1000 μM (Table 5)): 0%
2 | CCCCCCCCCCCCCCCC(=O)OC[C@H](COP(=O)([O-])OCC[N+](C)(C)C)OC(=O)CCCCCCCC(=O)O [16:0-09:0(COOH)PC, 1-Palmitoyl-2-Azelaoyl-sn-Glycero-3-Phosphocholine] | – | MTT levels comparable to that of the PBS negative control | – | – | – | – | – | Mean TER Reduction 1 hr. Post-treatment ([1]; lipid 500 μM): 92%; LDH levels ([2]; human, 1 h): below 30%; Cytotoxic Effect (LDH) 1 hr. Post-treatments ([2]; human, 1 h, 500 μM): 9%; % FITC-Dextran Permeation FD3 ([4]; lipid 500 μM (Table 5)): 3%
3 | CCCCCCCCCCCCCCCCCCOC[C@H](COP(=O)([O-])OCC[N+](C)(C)C)OC [18:0-1:0 Diether PC, 1-O-Octadecyl-2-O-Methyl-sn-Glycero-3-Phosphocholine] | 99% | MTT levels comparable to that of the PBS negative control | 111% | −1% | 0% | – | – | Mean TER Reduction 1 hr. Post-treatment ([1]; lipid 500 μM): 89%; Cytotoxic Effect (LDH) 1 hr. Post-treatments ([2]; human, 1 h, 500 μM): 26%; Cytotoxic Effect (LDH) 1 hr. Post-treatments ([2]; human, 1 h, 1000 μM): 50%; % FITC-Dextran Permeation FD3 ([4]; lipid 500 μM (Table 5)): 5%
4 | CCCCCCCC/C=C\CCCCCCCC(=O)O[C@H](COCCCCCCCCCCCCCCCC)COP(=O)([O-])OCC[N+](C)(C)C [C16-18:1 PC, 1-O-Hexadecyl-2-Oleoyl-sn-Glycero-3-Phosphocholine] | – | – | 86% | −2% | 0% | – | – | –
5 | CCCCC/C=C\C/C=C\C/C=C\C/C=C\CCCC(=O)O[C@H](COCCCCCCCCCCCCCCCC)COP(=O)([O-])OCC[N+](C)(C)C [C16-20:4 PC, 1-O-Hexadecyl-2-Arachidonoyl-sn-Glycero-3-Phosphocholine] | – | – | 96% | 0% | 0% | – | – | –
6 | CC/C=C\C/C=C\C/C=C\C/C=C\C/C=C\CCCC(=O)O[C@H](COCCCCCCCCCCCCCCCC)COP(=O)([O-])OCC[N+](C)(C)C [C16-20:5 PC, 1-O-Hexadecyl-2-Eicosapentaenoyl-sn-Glycero-3-Phosphocholine] | – | – | – | – | 0% | 90% | −1% | –
7 | CC/C=C\C/C=C\C/C=C\C/C=C\C/C=C\C/C=C\CCC(=O)O[C@H](COCCCCCCCCCCCCCCCC)COP(=O)([O-])OCC[N+](C)(C)C [C16-22:6 PC, 1-O-Hexadecyl-2-Docosahexaenoyl-sn-Glycero-3-Phosphocholine] | – | – | – | – | 0% | 97% | −1% | –
8 | CCCCCCCCCCCCCCCCCCOC[C@H](COP(=O)([O-])OCC[N+](C)(C)C)OC(=O)CCC [C18-04:0 PC, 1-O-Octadecyl-2-Butyroyl-sn-Glycero-3-Phosphocholine] | – | – | 85% | −3% | 0% | – | – | –
9 | CCCCCCCCCCCCCCCCOC[C@H](COP(=O)([O-])OCC[N+](C)(C)C)OC(=O)NC [C-PAF, 1-O-Hexadecyl-2-N-Methylcarbamyl-sn-Glycero-3-Phosphocholine] | – | – | – | – | 12% | 2% | 15% | Mean % of Original TER Value ([1]; lipid 500 μM (Table 4)): 10%; Mean % Relative Cytotoxic Effect (LDH) ([2]; lipid 500 μM (Table 4)): 11%; Mean % FD3 Permeation ([4]; lipid 500 μM): 11%; permeation of FD3 relative to negative controls ([4]; text summary of Table 4): enhanced the permeation of FD3 above that of the negative controls
10 | CCCCCCCCCCCCC/C=C/[C@@H](O)[C@@H](N)CO[C@@H]1O[C@H](CO)[C@@H](O[C@@H]2O[C@H](CO)[C@H](O)[C@H](O)[C@H]2O)[C@H](O)[C@H]1O [Lactosyl(β) Sphingosine, D-Lactosyl-β1-1′-D-erythro-Sphingosine] | 95% | – | – | – | – | – | – | Cytotoxic Effect (LDH) 1 hr. Post-treatments ([2]; lipid 1000 μM, percent of Triton-X100 LDH levels): 14%; % FITC-Dextran Permeation FD10 ([4]; lipid 1000 μM): 5%; % FITC-Dextran Permeation FD40 ([4]; lipid 1000 μM): 2%; % FITC-Dextran Permeation FD3 ([4]; lipid 1000 μM (Table 5)): 8%
